The source of these data is patent US20250092065A1, “2-(INDAZOL-5-YL)-6-(PIPERIDIN-4-YL)-1,7-NAPHTHYRIDINE DERIVATIVES AND RELATED COMPOUNDS AS MODULATORS FOR SPLICING NUCLEIC ACIDS AND FOR THE TREATMENT OF PROLIFERATIVE DISEASES” (REMIX THERAPEUTICS INC., priority 2022, published 2025).

The structures appear in SMILES notation. Like-named read-outs stand apart in the source and are kept apart here.

In general, IC50 refers to the concentration at which inhibition is half-maximal. Broadly, the AC50 is the concentration at which the activity in the assay is half-maximal.

For one data set, the system named is Target C. Put plainly: HiBiT protein abundance assay, Target C (K562 HiBiT knock-in). Format: cell-based, human. The following applies: HiBiT knock-in K562 cells, 24 hours, top dose 10 μM. In a few lines: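 K562 HiBiT knock-in cells (10000/well) were treated 24 h at 37° C with a 10-point 3-fold dilution series (top 10 μM final, ≤0.25% DMSO). HiBiT luminescence was read after lytic LgBiT detection. Percent response used unmodified K562 and DMSO-treated knock-in controls, and IC50 came from a four-parameter fit at 50% of untreated.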
Background: The HiBiT peptide binds its large partner to form an active luciferase.

A further data set concerns HTT mRNA. Put plainly: RT-qPCR splicing assay, HTT mRNA canonical (CJ) and alternative (AJ) junction. It is filed as cell-based, human. The following applies: Homo sapiens; for AC50: HTT alternative junction mRNA, read-out: HTT AJ (increase in AJ mRNA, AC50). In a few lines: (§1)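 Both isoforms, CJ and AJ, read by qPCR from crude lysates of treated A673 or K562 cells; 24 h, 37 °C, maximum 10 uM. Normalization: housekeeper ΔCt, then DMSO ΔΔCt.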
A general note: Real-time PCR tracks product formation cycle by cycle.

The subject of a further data set is MYB. As to the kind of experiment: HiBiT protein abundance assay, MYB (K562 HiBiT knock-in). It is filed as cell-based, human. The following applies: HiBiT knock-in K562 cells, 24 hours, top dose 10 μM. The method in brief:
(§2)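 K562 HiBiT knock-in, 24 h, 37 °C, top 10 μM final, 3-fold ×10, DMSO ≤0.25%. Lytic HiBiT luminescence; PC = parental K562, NC = DMSO; 4PL IC50.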

The subject of the next data set is MYB mRNA. As to the kind of experiment: RT-qPCR splicing assay, MYB mRNA canonical (CJ) and alternative (AJ) junction. It is filed as cell-based, human. The settings on record: Homo sapiens; for AC50: MYB alternative junction mRNA, read-out: MYB AJ (increase in AJ mRNA, AC50). The method in brief:
as §1

The subject of a further data set is HTT. Put plainly: HiBiT protein abundance assay, HTT (K562 HiBiT knock-in). Format: cell-based, human. The following applies: HiBiT knock-in K562 cells, 24 hours, top dose 10 μM. In a few lines: as §2
The subject of another data set is SMN2 mRNA. Put plainly: RT-qPCR splicing assay, SMN2 mRNA. The following applies: Homo sapiens, canonical junction qPCR panel, Table 4; read-out: SMN2 IC50 (decrease in CJ mRNA levels). Format: cell-based, human. In a few lines:
as §1

The next data set has as its system K562 cells. As to the kind of experiment: Cell Titer Glo 2.0 cell viability (toxicity) assay, K562. The settings on record: 500 cells/well, 72 hours. A general note: ATP-based viability assays read luminescence as a measure of living cells.
[1] abbreviates: HTT canonical junction mRNA, RT-qPCR, read-out: HTT CJ (decrease in CJ mRNA levels, IC50).
Setting [2] is: canonical junction qPCR panel, Table 4, read-out: HTT IC50 (decrease in CJ mRNA levels).
Setting [3] is: MYB canonical junction mRNA, RT-qPCR, read-out: MYB CJ (decrease in CJ mRNA levels, IC50).
Where [4] appears, read: canonical junction qPCR panel, Table 4, read-out: MYB IC50 (decrease in CJ mRNA levels).

Protocol for K562 cells: Compounds described herein were screened for toxicity in K562 (human chronic myelogenous leukemia) and SH-SY5Y (human neuroblastoma) cells using a Cell Titer Glo 2.0 assay.
Cells were plated at 500 cells/well (K562 cells) in 45 μL of IMDM supplemented with 10% FBS in a 384-well opaque plate. Wells containing only medium were used as a blank control. Test compounds (e.g., compounds of Formula (I) or (II)) were first serially diluted in DMSO then diluted 1:100 with EIDM+10% FBS. The final concentration of DMSO was 0.1% in each well. The cells were incubated for 72 hours at 37° C. and 5% CO2 before assaying with Cell Titer Glo 2.0 reagent.

Consider `Cn1cc2cc(-c3ccc4nc(N5CCC(N)C5)ccc4n3)c(O)c(F)c2n1` (centres unmarked) [Compound 238], for which the half-inhibitory concentration (IC50) in the data set on Target C, with HTT mRNA (setting [1]), with HTT mRNA (setting [2]), in the data set on MYB, in the data set with MYB mRNA (setting [3]) and in the data set on MYB mRNA (setting [4]) was below 0.1 µM throughout. The IC50 in the data set with HTT and in the data set with SMN2 mRNA was below 0.1 µM each time. Moreover, the AC50 in the data set on HTT mRNA (RT-qPCR) and in the data set on MYB mRNA (RT-qPCR) was below 0.1 µM in each case. In the data set on K562 cells, the “Effect of Exemplary Compounds on Cell Viability, K562” value (shortened to “Effect of Exemplary Compounds”) is recorded as “A (A represents <100 nM)”.
Take `Cn1cc2cc(-c3ccc4nc(N5CC[C@@H](NCC(F)(F)F)C5)ccc4n3)c(O)cc2n1` [Compound 245]: the half-maximal inhibitory concentration (IC50) in the data set with Target C, with HTT mRNA (setting [1]), with HTT mRNA (setting [2]), in the data set with MYB, in the data set with MYB mRNA (setting [3]) and with MYB mRNA (setting [4]) was above 10 µM throughout. Besides, the IC50 in the data set with HTT and in the data set on SMN2 mRNA was 1 to 10 µM each time. Moreover, the AC50 in the data set on HTT mRNA (RT-qPCR) and in the data set on MYB mRNA (RT-qPCR) was above 10 µM throughout. Moreover, the “Effect of Exemplary Compounds” value in the data set with K562 cells is “D (D represents greater than 10 μM in K562 cells)”.
Regarding `Cn1cc2cc(-c3ccc4nc(N5CC[C@@H](N[C@H]6C[C@H](F)C6)C5)ccc4n3)c(O)cc2n1` [Compound 246], the half-inhibitory concentration (IC50) in the data set on Target C, in the data set on HTT mRNA (setting [1]), in the data set with HTT mRNA (setting [2]), with MYB, in the data set with MYB mRNA (setting [3]) and with MYB mRNA (setting [4]) was below 0.1 µM throughout. Moreover, the half-inhibitory concentration (IC50) in the data set on HTT and in the data set on SMN2 mRNA was below 0.1 µM throughout. Moreover, the AC50 with HTT mRNA (RT-qPCR) and with MYB mRNA (RT-qPCR) was below 0.1 µM in each case. The “Effect of Exemplary Compounds” value in the data set on K562 cells is on record as “B (B represents 100-1000 nM)”.
In the case of `Cn1cc2cc(-c3ccc4nc(N5CC[C@H](N[C@H]6C[C@H](F)C6)C5)ccc4n3)c(O)cc2n1` [Compound 247], the half-maximal inhibitory concentration (IC50) was 0.1 to 1 µM in the data set on Target C; below 0.1 µM in the data set with HTT mRNA (setting [1]); below 0.1 µM with HTT mRNA (setting [2]); 0.1 to 1 µM with MYB; below 0.1 µM in the data set on MYB mRNA (setting [3]); below 0.1 µM in the data set on MYB mRNA (setting [4]). The figures for the IC50 in the data set with HTT and with SMN2 mRNA were 0.1 to 1 µM and below 0.1 µM, respectively. The AC50 in the data set with HTT mRNA (RT-qPCR) is 0.1 to 1 µM; with MYB mRNA (RT-qPCR), below 0.1 µM. In addition, in the data set on K562 cells, the “Effect of Exemplary Compounds” value is recorded as “B (B represents 100-1000 nM)”.
`Cc1nc2c(F)c(O)c(-c3ccc4nc(N5CC[C@@H](NC6CC6)C5)ccc4n3)cc2o1` [Compound 253]: the IC50 in the data set with Target C, in the data set on HTT mRNA (setting [1]), in the data set on HTT mRNA (setting [2]), in the data set with MYB, in the data set on MYB mRNA (setting [3]) and in the data set on MYB mRNA (setting [4]) was below 0.1 µM in each case. Also, the half-maximal inhibitory concentration (IC50) with HTT and in the data set with SMN2 mRNA was below 0.1 µM each time. Further, the AC50 in the data set on HTT mRNA (RT-qPCR) and with MYB mRNA (RT-qPCR) was below 0.1 µM in each case. Also, in the data set on K562 cells, the “Effect of Exemplary Compounds” value was “A (A represents <100 nM)”.
Regarding `Cc1nc2c(F)c(O)c(-c3ccc4nc(N5CC[C@H](NC6CC6)C5)ccc4n3)cc2o1` [Compound 254], the half-inhibitory concentration (IC50) in the data set on Target C, with HTT mRNA (setting [1]), in the data set on HTT mRNA (setting [2]), in the data set with MYB, in the data set with MYB mRNA (setting [3]) and in the data set on MYB mRNA (setting [4]) was below 0.1 µM throughout. In addition, the IC50 in the data set on HTT and in the data set with SMN2 mRNA was below 0.1 µM each time. In addition, the AC50 with HTT mRNA (RT-qPCR) and in the data set with MYB mRNA (RT-qPCR) was below 0.1 µM each time. The “Effect of Exemplary Compounds” value with K562 cells is listed as “A (A represents <100 nM)”.
For the molecule `Cc1nc2c(F)c(O)c(-c3ccc4nc(N5CC[C@H](NC(C)(C)C)C5)ccc4n3)cc2o1` [Compound 255], the IC50 in the data set on Target C, in the data set with HTT mRNA (setting [1]), with HTT mRNA (setting [2]), in the data set with MYB, with MYB mRNA (setting [3]) and with MYB mRNA (setting [4]) was below 0.1 µM in each case. The 50% inhibitory concentration (IC50) in the data set on HTT and in the data set on SMN2 mRNA was below 0.1 µM in each case. In addition, the half-maximal activity concentration (AC50) in the data set with HTT mRNA (RT-qPCR) and with MYB mRNA (RT-qPCR) was below 0.1 µM each time. For the same molecule, the “Effect of Exemplary Compounds” value in the data set on K562 cells is “A (A represents <100 nM)”.
